Test results published in paper PMC9029599, “Cytotoxicity and Antiviral Properties of Alkaloids Isolated from Pancratium maritimum” (Toxins, 2022).
Where two headings read alike, the source gives them in different places.

Tests used:
DENVGFP = assay: microbe, parasite or virus in culture; format: cell-based, dengue virus
Huh7 cells = assay: Cytotoxicity in Huh7 cells (ATP levels, Cell-Titer GLO)
Experimental: (§1) To account for non-specific antiviral activity caused by enhanced cell death, the cytotoxicity of P. maritimum isolated AAs was first determined in THP-1 and Huh7 virus-targeted cell lines exposed to concentrations ranging from 0.05 to 200 µM for 72 h. Cell viability was measured using ATP levels as a marker.
(§2) The monocytic cell line THP-1 derived from an acute monocytic leukemia patient was used in HIV-1GFP infection assays, while the hepatocyte-derived carcinoma cell line Huh7 was used with DENVGFP. Cell viability was evaluated using the Cell-Titer GLO assay kit (Promega, Madison, WI, USA) as previously described. Briefly, 7.5 × 10^3 Huh7 cells/well or 4 × 10^4 THP-1 cells/well were seeded in 96-well dark plates and treated with isolated AAs dissolved in methanol at concentrations ranging from 0.05 to 200 µM for 72 h. Afterwards, Cell-Titer GLO reagent was added in each well of room temperature-equilibrated plates. Luminescence was measured 10 min after shaking the plates for 2 min using a microplate spectrophotometer (Synergy H1, Biotek, Québec, QC, Canada). The percentage of viable cells was calculated at each concentration relatively to cells treated with matched concentrations of MetOH.

[1] = test system: VSV-G-pseudotyped HIV-1GFP; assay: cells; format: cell-based, human immunodeficiency virus-1; conditions: for EC50: read-out: EC50 HIVGFP
THP-1 cells = assay: Cytotoxicity in THP-1 cells (ATP levels, Cell-Titer GLO); conditions: 72 h; for live THP-1 cells: 6.25 µM
Experimental: as §1, §2

[2] = as above; conditions: human
Experimental: as §1, §2

AGS cells = assay: MTT viability test, AGS cells; format: cell-based; conditions: for effect on AGS cell viability: 0.5 to 50 µM, 24 and 48 h; for IC50: Homo sapiens, AGS; for cytotoxic activity on AGS cells: in words
Experimental: (§3) The potential cytotoxic activity of P. maritimum alkaloids was evaluated on Hacat, A431 and AGS cells treated with concentrations ranging from 0.5 to 10 µM for 24 and 48 h by measuring the reduction of 3-(4,5-dimethylthiazol-2) 2,5- diphenyltetrazolium bromide (MTT) to formazan by the mitochondrial enzyme succinate dehydrogenase.
(§4) HaCaT, spontaneously immortalized keratinocytes from adult skin, and AGS gastric adenocarcinoma cells were purchased from Service Cell Line (GmBH, Eppelheim, CLS, Germany). A431 (ATCC-CRL1555) human epidermoid carcinoma cells were from American Type Culture Collection (ATCC, Manassas, VA, USA). All mentioned cell lines were cultured in Dulbecco’s Modified Eagle’s Medium (DMEM, Sigma Chemical Co., St. Louis, MO, USA) supplemented with 10% fetal bovine serum (FBS, Hyclone Laboratories, Inc. Logan, UT, USA) at 37 °C in a humidified atmosphere of 5% CO2. Absence of mycoplasma contamination was verified for all cell lines. The purified alkaloids were resuspended in DMSO and added to the cell medium at concentrations varying from 0.5 to 50 µM as indicated.
Cell viability was evaluated by measuring the reduction of 3-(4,5-dimethylthiazol-2) 2,5-diphenyltetrazolium bromide (MTT) to formazan by the mitochondrial enzyme succinate dehydrogenase. Briefly, 10 × 10^3 cells were seeded on 96-well plates and exposed to different concentrations of total extract or metabolites for 48 h. and 72 h. MTT/PBS solution (0.5 mg/mL) was then added to the wells and incubated for 3 h at 37 °C in a humidified atmosphere. The reaction was stopped by removal of the supernatant followed by dissolving the formazan product in acidic isopropanol and the optical density was measured with Synergy H4 microplate reader Gen5 2.07 (Thermofisher, Waltham, MA, USA) using a 570 nm filter. Under these experimental conditions, no undissolved formazan crystals were observed. Cell viability was assessed by comparing the optical density of the treated samples compared to the controls. […] Data were represented as the mean standard deviation and analyzed for statistical significance using ordinary one-way analysis of variance (ANOVA) and multiple comparisons. For all tests, p < 0.05 was considered to indicate a statistically significant difference.

A431 cells [3] = conditions: for reduction of A431 cell viability: 10 µM, 24 h of treatment, MTT; for cytotoxic activity on A431 cells: in words
Experimental: as §3, §4
(§5) Cell viability was evaluated by measuring the reduction of 3-(4,5-dimethylthiazol-2) 2,5-diphenyltetrazolium bromide (MTT) to formazan by the mitochondrial enzyme succinate dehydrogenase. Briefly, 10 × 10^3 cells were seeded on 96-well plates and exposed to different concentrations of total extract or metabolites for 48 h. and 72 h. MTT/PBS solution (0.5 mg/mL) was then added to the wells and incubated for 3 h at 37 °C in a humidified atmosphere. The reaction was stopped by removal of the supernatant followed by dissolving the formazan product in acidic isopropanol and the optical density was measured with Synergy H4 microplate reader Gen5 2.07 (Thermofisher, Waltham, MA, USA) using a 570 nm filter. Under these experimental conditions, no undissolved formazan crystals were observed. Cell viability was assessed by comparing the optical density of the treated samples compared to the controls. Statistical analyses were carried out using the GraphPad Prism version 8.1.2 (https://www.graphpad.com/scientific-software/prism/ (accessed on 18 December 2021)). Data were represented as the mean standard deviation and analyzed for statistical significance using ordinary one-way analysis of variance (ANOVA) and multiple comparisons. For all tests, p < 0.05 was considered to indicate a statistically significant difference.

Hacat cells [4] = conditions: for reduction of Hacat cell viability: 10 µM, 24 h of treatment, MTT; for cytotoxic activity on Hacat cells: in words
Experimental: as §3, §4, §5

in vitro = conditions: human
Experimental: as §1, §2

A431 cells [5] = assay: cells; conditions: Homo sapiens, A-431, read-out: IC50 A431
Experimental: as §3, §4, §5

Hacat cells [6] = assay: cells; conditions: Homo sapiens, read-out: IC50 Hacat
Experimental: as §3, §4, §5

[7] = Dengue virus, Huh-7, 72 h, read-out: EC50 DENVGFP, Huh7 cells, MOI = 0.02, 72 h
[8] = read-out: EC50 DENVGFP, Huh7 cells, MOI = 0.02, 72 h
[9] = Dengue virus, Huh-7, read-out: EC50 DENV, Huh7 cells
[10] = MTT, time not stated, read-out: IC50 AGS

**Q.** Which results are given for `COc1cc2c(cc1OC)[C@H]1[C@H]3C(=CC[C@H]1OC2=O)CCN3C` [Homolycorine]?
**A.** EC50 (DENVGFP; [7]): 65 µM; EC50 (DENVGFP; [8]): 65 µM

**Q.** Which “live Huh7 cells” value (Huh7 cells; 6.25 µM, 72 h) does the source give for `OC1C=C2C3CN(Cc4cc5c(cc43)OCO5)C2CC1O` (centres unmarked) [Pancracine] here?
**A.** 78.1%

**Q.** What about the “concentration at which Huh7 cell viability is reduced” value (Huh7 cells; 72 h) of the same molecule?
**A.** 6.25 µM

**Q.** What about the “HIV-1GFP inhibition at 100 µM” value [1] of the same molecule?
**A.** Complete viral inhibition

**Q.** And the “inhibition of HIV-1GFP, dose dependence” value [1]?
**A.** dose-dependent inhibition of HIV-1

**Q.** What about the EC50 ([1]; Homo sapiens, THP-1, 72 h) of the same molecule?
**A.** 18.5 µM

**Q.** And the EC50 [1]?
**A.** 18.5 µM

**Q.** And the “DENVGFP inhibition at 1.56 µM” value (DENVGFP; Huh7 cells)?
**A.** Complete inhibition

**Q.** What about the EC50 (DENVGFP; [7]) of the same molecule?
**A.** 0.358 µM

**Q.** And the EC50 (DENVGFP; [9])?
**A.** 0.357 µM

**Q.** And the EC50 (DENVGFP; [8])?
**A.** 0.36 µM

**Q.** What about the “live THP-1 cells” value (THP-1 cells) of the same molecule?
**A.** 82%

**Q.** And the “concentration at which THP-1 cell viability begins to decrease” value (THP-1 cells)?
**A.** 3.125 µM

**Q.** What about the CC50 at 72 h ([2]; CC50 THP-1, 72 h, ATP levels) of the same molecule?
**A.** 25.9 µM

**Q.** With `COC1C=CC23c4cc5c(cc4C(OC(=O)c4ccc(Br)cc4)N(CC2OC(=O)c2ccc(Br)cc2)C3C1)OCO5` (centres unmarked) [compound 11, 6,11-O,O′-Di-p-Bromobenzoyl Ester of haemanthidine] as the molecule, how does the “effect on AGS cell viability” value (AGS cells; MTT) read?
**A.** able to reduce AGS cell viability

**Q.** Which results are given for `COC1C=CC23c4cc5c(cc4CN(CC2O)C3C1)OCO5` (centres unmarked) [Haemanthamine]?
**A.** live Huh7 cells (Huh7 cells; 3.125 µM, 72 h): 82.2%; concentration at which Huh7 cell viability is reduced (Huh7 cells; 72 h): above 3.125 µM; reduction of A431 cell viability (A431 cells [3]): 15–30%; HIV-1GFP inhibition at 100 µM [1]: Complete viral inhibition; inhibition of HIV-1GFP, dose dependence [1]: dose-dependent inhibition of HIV-1; EC50 ([1]; Homo sapiens, THP-1, 72 h): 25.3 µM; EC50 [1]: 25.3 µM; reduction of Hacat cell viability (Hacat cells [4]): 15–30%; DENVGFP inhibition at 1.56 µM (DENVGFP; Huh7 cells): Complete inhibition; EC50 (DENVGFP; [7]): 0.34 µM; EC50 (DENVGFP; [9]): 0.337 µM; live THP-1 cells (THP-1 cells): 71%; concentration at which THP-1 cell viability begins to decrease (THP-1 cells): 3.125 µM; CC50 (THP-1 cells; read-out: CC50 THP-1, ATP levels): 22.2 µM; CC50 at 72 h ([2]; CC50 THP-1, 72 h, ATP levels): 22.2 µM; IC50 (AGS cells; 24 h, read-out: IC50 AGS cells at 24 h): 7.5 µM; IC50 (AGS cells; MTT, 48 h, read-out: IC50 AGS cells at 48 h): 7.5 µM; IC50 (AGS cells; [10]): 7.5 µM

**Q.** With `COC1C=CC23c4cc5c(cc4C(OC(=O)c4ccc(Br)cc4)N(CC2OC(=O)c2ccc(Br)cc2)C3C1)OCO5` (centres unmarked) [compound 12, 6,11-O,O′-Di-p-Bromobenzoyl Ester of haemanthidine] as the molecule, how does the “effect on AGS cell viability” value (AGS cells; MTT) read?
**A.** able to reduce AGS cell viability

**Q.** Which viability at 72 h, 50 µM (in vitro) does the source give for `CO[C@@H]1C=C[C@@]23c4cc5c(cc4CO[C@]2(O)CN(C)[C@H]3C1)OCO5` [Tazettine] here?
**A.** 85.2%

**Q.** What about the “concentration at which Huh7 cell viability is reduced” value (Huh7 cells; human, 72 h) of the same molecule?
**A.** higher than 50 µM

**Q.** What about the “reduction of A431 cell viability” value (A431 cells [3]) of the same molecule?
**A.** 15–30%

**Q.** And the “inhibition of HIV-1GFP, dose dependence” value [1]?
**A.** dose-dependent inhibition of HIV-1

**Q.** And the EC50 ([1]; Homo sapiens, THP-1, 72 h)?
**A.** 120 µM

**Q.** And the “reduction of Hacat cell viability” value (Hacat cells [4])?
**A.** 15–30%

**Q.** And the EC50 (DENVGFP; [7])?
**A.** 12.5 µM

**Q.** And the viability at 72 h, 100 µM [2]?
**A.** 60.9%

**Q.** What about the CC50 at 72 h ([2]; CC50 THP-1, 72 h, ATP levels) of the same molecule?
**A.** 137 µM

**Q.** Which “live Huh7 cells” value (Huh7 cells; 6.25 µM, 72 h) does the source give for `CO[C@@H]1C=C[C@@]23c4cc5c(cc4C(O)N(C[C@@H]2O)[C@H]3C1)OCO5` (some centres unmarked) [Haemanthidine] here?
**A.** 83.3%

**Q.** And the “concentration at which Huh7 cell viability is reduced” value (Huh7 cells; 72 h)?
**A.** 6.25 µM

**Q.** And the “reduction of A431 cell viability” value (A431 cells [3])?
**A.** 15–30%

**Q.** What about the “cytotoxic activity on A431 cells” value (A431 cells [3]) of the same molecule?
**A.** showed cytotoxic activity

**Q.** And the “HIV-1GFP inhibition at 100 µM” value [1]?
**A.** Complete viral inhibition

**Q.** What about the “inhibition of HIV-1GFP, dose dependence” value [1] of the same molecule?
**A.** dose-dependent inhibition of HIV-1

**Q.** And the EC50 ([1]; Homo sapiens, THP-1, 72 h)?
**A.** 12.7 µM

**Q.** And the EC50 [1]?
**A.** 12.7 µM

**Q.** What about the “reduction of Hacat cell viability” value (Hacat cells [4]) of the same molecule?
**A.** 15–30%

**Q.** What about the “cytotoxic activity on Hacat cells” value (Hacat cells [4]) of the same molecule?
**A.** showed cytotoxic activity

**Q.** And the “DENVGFP inhibition at 1.56 µM” value (DENVGFP; Huh7 cells)?
**A.** Complete inhibition

**Q.** What about the EC50 (DENVGFP; [7]) of the same molecule?
**A.** 0.48 µM

**Q.** What about the EC50 (DENVGFP; [9]) of the same molecule?
**A.** 0.476 µM

**Q.** What about the “live THP-1 cells” value (THP-1 cells) of the same molecule?
**A.** 71%

**Q.** What about the “concentration at which THP-1 cell viability begins to decrease” value (THP-1 cells) of the same molecule?
**A.** 3.125 µM

**Q.** What about the CC50 at 72 h ([2]; CC50 THP-1, 72 h, ATP levels) of the same molecule?
**A.** 16.8 µM

**Q.** And the IC50 (AGS cells; [10])?
**A.** 5 µM

**Q.** What about the “cytotoxic activity on AGS cells” value (AGS cells) of the same molecule?
**A.** showed cytotoxic activity

**Q.** With `Cc1nnc(C(=O)NC(C)(C)c2nc(C(=O)NCc3ccc(F)cc3)c(O)c(=O)n2C)o1` [Raltegravir, reference compound] as the molecule, how does the “HIV-1 infection with positive control” value [1] read?
**A.** completely impeded HIV-1 infection

**Q.** For `OC1C=CC23c4cc5c(cc4CN(CC2O)C3C1)OCO5` (centres unmarked) [11-Hydroxyvittatine], which viability at 72 h, 50 µM (in vitro) is on record?
**A.** 73.8%

**Q.** What about the “concentration at which Huh7 cell viability is reduced” value (Huh7 cells; 72 h) of the same molecule?
**A.** higher than 50 µM

**Q.** And the “inhibition of HIV-1GFP, dose dependence” value [1]?
**A.** dose-dependent inhibition of HIV-1

**Q.** What about the EC50 ([1]; Homo sapiens, THP-1, 72 h) of the same molecule?
**A.** 65.1 µM

**Q.** What about the EC50 (DENVGFP; [7]) of the same molecule?
**A.** 3.92 µM

**Q.** What about the viability at 72 h, 100 µM [2] of the same molecule?
**A.** 52.3%

**Q.** What about the CC50 at 72 h ([2]; CC50 THP-1, 72 h, ATP levels) of the same molecule?
**A.** 113 µM

**Q.** Which results are given for `CO[C@@H]1C=C[C@@]23c4cc5c(cc4CN(CCc4ccc(O)cc4)[C@@H]2C(=O)N(C)[C@H]3C1)OCO5` [Obliquine]?
**A.** viability at 72 h, 100 µM (in vitro; Huh7 hepatocyte-derived carcinoma cells): 82.6%; concentration at which Huh7 cell viability is reduced (Huh7 cells; 72 h): 100 µM; inhibition of HIV-1GFP, dose dependence [1]: dose-dependent inhibition of HIV-1; EC50 ([1]; Homo sapiens, THP-1, 72 h): 153 µM; EC50 (DENVGFP; [7]): 73.6 µM; EC50 (DENVGFP; [8]): 73.6 µM; viability at 72 h, 100 µM [2]: 55.3%; CC50 at 72 h ([2]; CC50 THP-1, 72 h, ATP levels): 127 µM

**Q.** What does the source list for `O[C@H]1[C@H]2c3cc4c(cc3CN3CCC(=C[C@@H]1O)[C@H]23)OCO4` [Lycorine]?
**A.** reduction of Huh7 viability (Huh7 cells; 0.78 µM, 72 h): 21%; reduction of Huh7 cell viability (Huh7 cells; 1.56 µM): 25%; cytotoxic activity on A431 cells (A431 cells [3]): showed cytotoxic activity; HIV-1GFP inhibition at 100 µM [1]: Complete viral inhibition; inhibition of HIV-1GFP, dose dependence [1]: dose-dependent inhibition of HIV-1; EC50 ([1]; Homo sapiens, THP-1, 72 h): 10.9 µM; IC50 (A431 cells [5]): 0.5 µM; cytotoxic activity on Hacat cells (Hacat cells [4]): showed cytotoxic activity; DENVGFP inhibition at 1.56 µM (DENVGFP; Huh7 cells): Complete inhibition; EC50 (DENVGFP; [7]): 0.386 µM; EC50 (DENVGFP; [8]): 0.39 µM; CC50 (THP-1 cells; human): 4.61 µM; CC50 at 72 h ([2]; CC50 THP-1): 4.6 µM; IC50 (AGS cells; [10]): < 0.5 µM; cytotoxic activity on AGS cells (AGS cells): showed cytotoxic activity; IC50 (Hacat cells [6]): 0.5 µM

**Q.** For `O[C@@H]1C=C[C@]23CCN(Cc4cc5c(cc42)OCO5)[C@H]3C1` [Vittatine], which EC50 (DENVGFP; [7]) is on record?
**A.** 15.5 µM
